Reference: patent US8298581B2, “Matrix compositions for controlled delivery of drug substances” (Egalet A/S, priority 2003, dated 2012)
In brackets after ≈: the same amount, converted by molar mass.

Assay: Solubility of active ingredient in water
Assay type: physicochemical
Conditions: 23° C., water at pH 7.6

- solubility: 4300 µg/mL (≈ 20.1 mM)
SMILES: NCC(CC(=O)O)c1ccc(Cl)cc1 (stereo not shown) [active ingredient, Baclofen]
